{"source": "paper PMC9120013", "about": "“Ribosome inhibition by C9ORF72-ALS/FTD-associated poly-PR and poly-GR proteins revealed by cryo-EM” (Nature Communications, 2022)", "key": {"[1]": {"system": "firefly luciferase enzyme", "experiment": "Control: firefly luciferase enzyme activity in RRL without mRNA", "assay_type": "biochemical", "details": "1 µM added after 120 s to 40 nM enzyme in RRL; n=6", "description": "The following additional controls indicate that DPR-induced changes in fluorescence were caused by translation inhibition.\nSupplementary Fig. 1. […]"}, "[2]": {"system": "E. coli 70S ribosomes", "experiment": "Kinetic peptidyl transfer (puromycin) assay on E. coli 70S ribosomes", "assay_type": "biochemical", "details": "30 nM 70S, 50 µM puromycin, 37 °C; n = 2; read-out: apparent inhibition constant (Ki) of peptidyl transfer", "protocol": "The effects of GRn or PRn on peptide bond formation in E. coli ribosome were tested in an in vitro assay that reacts the 70S ribosome loaded with [^35S]-fMet-tRNA^fMet in the P-site with puromycin, an A-site tRNA mimic, and measures the release of the resulting dipeptide containing formyl-methionine covalently bonded to puromycin, as described. E. coli tRNA^fMet (Chemical Block) was aminoacylated with [^35S]-N-formyl-L-methionine (Perkin Elmer) as described. 70S ribosomes were prepared from E. coli (MRE600) as described. 70S ribosomes were stored in the ribosome-storage buffer (20 mM Tris-HCl, pH 7.0; 100 mM NH4Cl; 20 mM MgCl2) at –80 °C. A model mRNA fragment, containing the Shine-Dalgarno sequence and a spacer to position the AUG codon in the P-site and the UUC codon in the A site (GGCAAGGAGGUAAAAAUGUUC AAAAAA), was synthesized by IDT. 70S•mRNA•fMet-tRNA^fMet complexes with GRn (where n = 4, 10 or 20) or PRn (where n = 4, 10, 20 or 40) were formed as follows. 330 nM 70S ribosomes were incubated with 11 µM mRNA in buffer containing 20 mM Tris-acetate (pH 7.0), 100 mM NH4OAc, 12 mM Mg(OAc)2, for 2 min at 37 °C. 730 nM [^35S]-fMet-tRNA^fMet was added and incubated for 5 min at 37 °C. The solution was diluted 9.6-fold with the same buffer, followed by addition of a GRn or PRn repeat peptide (22x relative to its final concentration). The complex was incubated for 5 min at 37 °C prior to addition of puromycin dissolved in the same buffer (see below).\nThe kinetics of puromycin reaction on the 70S or 80S ribosomes were recorded and analyzed essentially as described. An aliquot (4.5 μl) of the complex prior to addition of puromycin was quenched in 30 μl of saturated MgSO4 in 0.1 M NaOAc to represent the zero-time point. Five microliters of 500 µM puromycin (in the same buffer as that used for the ribosomal complex) was added to 45 μl of the complex to initiate the reaction, yielding estimated final concentrations: 30 nM for the ribosome, 1 µM mRNA, 66 nM [^35S]-fMet-tRNA^fMet, 50 µM puromycin, and varying concentrations of PRn and GRn peptides, from 30 nM to 2 μM. After 6, 15, 30, 90 s, and 5, 15, 30, 60, and (for slower reactions) 180 min, 5-μl aliquots were quenched in 30 μl of saturated MgSO4 in 0.1 M NaOAc. All quenched samples were extracted with 700 μl ethyl-acetate. 600 μl of the extract were mixed with 3.5 ml of Econo-Safe scintillation cocktail (RPI), and the amount of released [^35S]-labeled dipeptide was measured for each time point using a scintillation counter (Beckman Coulter, Inc.).\nAll time progress curves were recorded in duplicates, using independently prepared 70S or 80S complexes. Reaction rates were calculated using single-exponential or double-exponential (80S complexes) regressions for different concentrations of PRn and GRn using GraphPad Prism 8. Hyperbola fitting in Gnuplot was used to derive apparent Ki-values."}, "[3]": {"system": "ribosomes on endogenous beta-globin mRNA in RRL", "experiment": "Toeprinting of 80S and 4-5-mer polysome fractions on beta-globin mRNA", "assay_type": "biochemical, rabbit", "details": "for Ratio (START to CDS) / Normalized ratio START/ORF: 80S fraction, primer A, Fig. 2f independent repeat; for Normalized ratio START/ORF: no inhibitor = 1; for normalized ratio START to CDS, MEAN: 4-5-mer, primer B, mean of ten 20 bp windows", "protocol": "Toeprinting analyses were carried out similarly to those in refs. [51],[74], using 80S and polysome (4–5-some) fractions collected from polysome profiles as described in “Polysome Profiles” except that reactions were doubled in size (200 μL), performed at 37 °C, and were stopped with ice-cold 1xAMV Buffer (50 mM Tris-HCl pH 8.3, 50 mM KCl, 5 mM MgCl2) with 200 μg/ml cycloheximide before being separated on at 10–35% sucrose gradient in 1xAMV buffer with 0.5 mM spermidine and 1 mM DTT. 600 μl of each fraction (80S or 4–5-mer) was supplemented with 10 mM DTT. Then 10 U of AMV reverse transcriptase (Promega), 120 nmol dNTPs, and 120 pmol of a 5'[6-carboxyfluorescein (FAM)]-labeled primer (IDT-DNA) were added. Two primers specific to the endogenous beta-globin mRNA in RRL were used in separate reactions: 5′-(FAM)-GGACTCGAAGAACCTCTG (as in ref. [74]) annealed 136 nucleotides downstream of the AUG or 5′-(FAM)-[…] annealed to the end of the 3'-UTR. Primers were extended at 37 °C for 30 min, and then the reaction were extracted in 1:1 phenol:chloroform, supplemented with 1/10 volume of 3 M sodium acetate pH 5.2, and precipitated with 2.5 volumes of 100% ethanol. Pellets were resuspended in 10 μl of deionized formamide (Applied Biosystems) with 1/20 volume of a 35-500 nucleotide orange-dye labeled DNA size standard (MCLab) and loaded onto a 96-well plate. The samples were sent for fragment analysis by capillary electrophoresis to the UMass Chan Medical School Molecular Biology Core Laboratory using an ABI3730XL DNA Fragment Analyzer with capillaries loaded with POP-7 polymer and with an injection voltage of 12.5 kV. Data collection was performed with GeneMapper software (ABI). Data were exported as.fsa files and were analyzed (aligning to ladder and background correction) in GeneMarker 3.0.1 software (SoftGenetics) running in demo mode. Screen captures of traces were taken and traces were integrated using the “Quantification” feature and manually adjusting sliders to include the desired nucleotide range."}}, "note": "Ends that are not written are not given here.", "data": [{"compound": "N=C(N)NCCC[C@H](NC(=O)CNC(=O)[C@H](CCCNC(=N)N)NC(=O)CNC(=O)[C@H](CCCNC(=N)N)NC(=O)CNC(=O)[C@H](CCCNC(=N)N)NC(=O)CNC(=O)[C@H](CCCNC(=N)N)NC(=O)CNC(=O)[C@H](CCCNC(=N)N)NC(=O)CNC(=O)[C@H](CCCNC(=N)N)NC(=O)CNC(=O)[C@H](CCCNC(=N)N)NC(=O)CNC(=O)[C@H](CCCNC(=N)N)NC(=O)CNC(=O)[C@H](CCCNC(=N)N)NC(=O)CNC(=O)[C@H](CCCNC(=N)N)NC(=O)CNC(=O)[C@H](CCCNC(=N)N)NC(=O)CNC(=O)[C@H](CCCNC(=N)N)NC(=O)CNC(=O)[C@H](CCCNC(=N)N)NC(=O)CNC(=O)[C@H](CCCNC(=N)N)NC(=O)CNC(=O)[C@H](CCCNC(=N)N)NC(=O)CNC(=O)[C@H](CCCNC(=N)N)NC(=O)CNC(=O)[C@H](CCCNC(=N)N)NC(=O)CNC(=O)[C@H](CCCNC(=N)N)NC(=O)CNC(=O)[C@H](CCCNC(=N)N)NC(=O)CN)C(=O)O", "note": "[GR20]", "values": [{"measurement": "effect on firefly luciferase enzyme activity", "setting": "[1]", "value": "do not affect enzyme activity"}, {"measurement": "Ki", "setting": "[2]", "value": "164 ± 31", "unit": "nM"}, {"measurement": "site of ribosome accumulation, toe-printing of polysome fractions", "setting": "[3]", "value": "accumulate within the open reading frame"}, {"measurement": "Ratio (START to CDS)", "setting": "[3]", "value": 1.504}, {"measurement": "Normalized ratio START/ORF", "setting": "[3]", "value": 0.5576}, {"measurement": "normalized ratio START to CDS, MEAN", "setting": "[3]; Fig. 2g", "value": 0.4196}, {"measurement": "normalized ratio START to CDS, MEAN", "setting": "[3]; Fig. 2h independent repeat", "value": 0.5964}]}, {"compound": "PRPRPRPRPRPRPRPRPRPRPRPRPRPRPRPRPRPRPRPR [PR20]", "values": [{"measurement": "effect on firefly luciferase enzyme activity", "setting": "[1]", "value": "do not affect enzyme activity"}, {"measurement": "Ki", "setting": "[2]", "value": "44 ± 9", "unit": "nM"}, {"measurement": "site of ribosome accumulation, toe-printing of polysome fractions", "setting": "[3]", "value": "accumulate at the start codon"}, {"measurement": "Ratio (START to CDS)", "setting": "[3]", "value": 5.983}, {"measurement": "Normalized ratio START/ORF", "setting": "[3]", "value": 2.218}, {"measurement": "normalized ratio START to CDS, MEAN", "setting": "[3]; Fig. 2g", "value": 2.067}, {"measurement": "normalized ratio START to CDS, MEAN", "setting": "[3]; Fig. 2h independent repeat", "value": 3.436}]}]}
